Measurements published in US20250127799A1, “DRUG CONJUGATES FOR BONE MARROW PROTECTION” (priority 2023, published 2025).
Peptide text beside a SMILES is read from it. * marks the point of attachment. X1 = O=C(CCCCCN1C(=O)CC(*)C1=O)NCCCC(O)(P(=O)(O)O)P(=O)(O)O; X2 = O=P(O)(O)SCCNCCCN*

Legend:
[1] = Conjugate cleavage in fresh bone marrow aspirate (HPLC); assay type: in vitro ADME; conditions: fresh bone marrow aspirate; human bone marrow aspirate, same donor, 37° C., up to 6 h; read-out: time to reach 50% conjugate cleavage (converted)
Procedure: The proteolytic cleavage of conjugates determines the therapeutic window, which is controlled by the specific peptide sequence. In a representative cleavage experiment, a […] stock solution of a conjugate (30 mg/mL) was mixed with 90 μL of fresh bone marrow aspirate, followed by incubation at 37° C. for up to 6 h. A 10 μL sample was taken every hour, diluted in 90 μL acetonitrile to precipitate proteins and extract conjugates and cleavage products. The concentrations of the conjugates in samples were determined by HPLC, normalized, and presented as the cleavage ratio.

[2] = biological target: matrix metalloproteinase 9 (MMP9) (Homo sapiens, UniProt P14780); assay: In vitro matrix metalloproteinase-based conjugate cleavage; assay type: biochemical; conditions: isolated enzyme, MMP9, 37° C., up to 20 h, read-out: T1/2 of cleavage (converted)
Sequence of matrix metalloproteinase 9 (MMP9) (P14780 94-707, species assumed): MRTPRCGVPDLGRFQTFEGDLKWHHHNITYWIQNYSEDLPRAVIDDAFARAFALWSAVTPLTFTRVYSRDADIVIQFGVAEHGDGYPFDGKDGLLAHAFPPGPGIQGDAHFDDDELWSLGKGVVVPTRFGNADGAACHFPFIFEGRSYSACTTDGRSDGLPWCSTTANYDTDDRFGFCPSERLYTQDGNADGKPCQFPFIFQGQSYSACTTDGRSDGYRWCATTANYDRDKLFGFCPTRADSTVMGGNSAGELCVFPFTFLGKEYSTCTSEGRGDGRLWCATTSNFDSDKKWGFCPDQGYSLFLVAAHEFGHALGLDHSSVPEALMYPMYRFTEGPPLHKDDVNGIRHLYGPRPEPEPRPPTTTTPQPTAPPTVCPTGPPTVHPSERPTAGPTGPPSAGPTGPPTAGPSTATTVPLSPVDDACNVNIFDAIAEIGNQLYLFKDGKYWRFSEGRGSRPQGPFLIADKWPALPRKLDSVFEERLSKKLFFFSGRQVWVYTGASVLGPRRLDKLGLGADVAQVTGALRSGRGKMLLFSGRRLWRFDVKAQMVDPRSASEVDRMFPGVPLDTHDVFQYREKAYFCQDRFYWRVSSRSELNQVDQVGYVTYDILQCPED
Procedure: In this exemplary representative cleavage experiment, a 90 μL stock solution of protective drug conjugate (1 mg/mL) was mixed with 2 μL of matrix metalloproteinase 9 (MMP9) (10 unit/μL) and 8.2 μL of 50 mM CaCl2 solution, followed by incubation at 37° C. for up to 20 h. A 10 μL sample was taken at 0.3, 1, 2, 4, 9, or 20 h for the HPLC analysis. Three conjugates having different peptide sequences (Conjugates 1-3) were used in this test: Conjugate 1-peptide sequence of CPLSLYAL (SEQ ID NO: 65); Conjugate 2-peptide sequence of CPLSLYSL (SEQ ID NO: 66); and Conjugate 3-peptide sequence of CPLGLAL (SEQ ID NO: 67). The concentrations of the conjugate residual in samples were normalized and presented as cleavage ratios.

CD2F1 male mice = assay: Pathological evaluation of irradiated mice injected with a single dose; assay type: in vivo; parameters: key to Pathological change grade: Spleen, Depletion, white pulp / Pathological change grade: Lung, Infiltrate, mixed cells / Pathological change grade: Lung, Fibrosis / Pathological change grade: Heart, Infiltrate, mixed cells / Pathological change grade: Heart, Mineralization / Pathological change grade: Duodenum / Pathological change grade: Jejunum / Pathological change grade: Ileum / Pathological change grade: Colon, Infiltrate, mixed cells / Pathological change grade: Kidney / Pathological change grade: Urinary bladder / Pathological change grade: Bone Marrow, Atrophy / Pathological change grade: Bone Marrow, Hemorrhage / Pathological change grade: Liver: 0=no change; 1=a minimal change, barely perceptible; 2=a mild change; 3 =a moderate change, affecting up to 50% of the tissue; 4=marked change, affecting up to 90% of the tissue; 5=severe or maximum change
Procedure: CD2F1 male mice (N=16) were subcutaneously (sc) injected with a single dose of one conjugate drug. For one protective drug conjugate (Conjugate 2), the tested doses were 250, 500, 600, and 700 mg/kg, and the irradiation was conducted at 24 h post-drug administration. The structure of Conjugate 2 included amifostine as the protective drug, alendronate as the bone-targeting ligand, and a protease-cleavable peptide having the sequence of CPLGLYAL (SEQ ID NO: 29) with acetylation at the N-terminus (e.g., AcCPLGLYAL; SEQ ID NO: 76). On day 30, surviving mice were humanely sacrificed and necropsied, eleven tissues of interest (liver, spleen, lung, heart, duodenum, jejunum, ileum, colon, kidney, urinary bladder, and sternum/bone marrow) were collected, preserved in fixative, and processed to glass slides. The completed preparations were stained with hematoxylin and eosin and examined microscopically. Pathological changes in the tissues were graded using a semi-quantitation scale of 0-5, where 0=no change, 1=a minimal change, barely perceptible; 2=a mild change; 3 =a moderate change, affecting up to 50% of the tissue; 4=marked change, affecting up to 90% of the tissue; and 5=severe or maximum change.

[3] = 250 mg/kg sc, 24 h before 9.2 Gy, day 30, N = 11
[4] = 500 mg/kg sc, 24 h before 9.2 Gy, day 30, N = 12
[5] = 600 mg/kg sc, 24 h before 9.2 Gy, day 30, N = 15
[6] = 700 mg/kg sc, 24 h before 9.2 Gy, day 30, N = 16

## CC(=O)N[C@@H](CSC1CC(=O)N(CCCCCC(=O)NCCCC(O)(P(=O)(O)O)P(=O)(O)O)C1=O)C(=O)N1CCC[C@H]1C(=O)N[C@@H](CC(C)C)C(=O)NCC(=O)N[C@@H](CC(C)C)C(=O)N[C@@H](Cc1ccc(O)cc1)C(=O)N[C@@H](C)C(=O)N[C@@H](CC(C)C)C(=O)NCCCNCCSP(=O)(O)O (stereo partly shown) [Conjugate 2] (Ac-C(X1)PLGLYAL-X2)
[1]
  half-life at 3 mg/mL: 4.2 h
[2]
  half-life at 0.898 mg/mL: ~7.5 h
CD2F1 male mice; [3]
  Pathological change grade: Bone Marrow, Atrophy: 2-3
  Pathological change grade: Bone Marrow, Hemorrhage: 0-1
  Pathological change grade: Colon, Infiltrate, mixed cells: 1
  Pathological change grade: Duodenum: 0
  Pathological change grade: Heart, Infiltrate, mixed cells: 0
  Pathological change grade: Heart, Mineralization: 0
  Pathological change grade: Ileum: 0
  Pathological change grade: Jejunum: 0
  Pathological change grade: Kidney: 0
  Pathological change grade: Liver: 0
  Pathological change grade: Lung, Fibrosis: 0
  Pathological change grade: Lung, Infiltrate, mixed cells: 0
  Pathological change grade: Spleen, Depletion, white pulp: 2
  Pathological change grade: Urinary bladder: 0
CD2F1 male mice; [4]
  Pathological change grade: Bone Marrow, Atrophy: 2-3
  Pathological change grade: Bone Marrow, Hemorrhage: 0-1
  Pathological change grade: Colon, Infiltrate, mixed cells: 1
  Pathological change grade: Duodenum: 0
  Pathological change grade: Heart, Infiltrate, mixed cells: 0
  Pathological change grade: Heart, Mineralization: 0
  Pathological change grade: Ileum: 0
  Pathological change grade: Jejunum: 0
  Pathological change grade: Kidney: 0
  Pathological change grade: Liver: 0
  Pathological change grade: Lung, Fibrosis: 0
  Pathological change grade: Lung, Infiltrate, mixed cells: 0
  Pathological change grade: Spleen, Depletion, white pulp: 1-2
  Pathological change grade: Urinary bladder: 0
CD2F1 male mice; [5]
  Pathological change grade: Bone Marrow, Atrophy: 2-3
  Pathological change grade: Bone Marrow, Hemorrhage: 0-1
  Pathological change grade: Colon, Infiltrate, mixed cells: 0-1
  Pathological change grade: Duodenum: 0
  Pathological change grade: Heart, Infiltrate, mixed cells: 0
  Pathological change grade: Heart, Mineralization: 0
  Pathological change grade: Ileum: 0
  Pathological change grade: Jejunum: 0
  Pathological change grade: Kidney: 0
  Pathological change grade: Liver: 0
  Pathological change grade: Lung, Fibrosis: 0
  Pathological change grade: Lung, Infiltrate, mixed cells: 0
  Pathological change grade: Spleen, Depletion, white pulp: 1-2
  Pathological change grade: Urinary bladder: 0
CD2F1 male mice; 700 mg/kg 24 h before 9.2 Gy, day 30 (FIG. 11B)
  sternal bone marrow histology compared to Vehicle Group: much denser marrow
CD2F1 male mice; 700 mg/kg 24 h before 9.2 Gy, day 30 (FIG. 11D)
  white pulp of the spleen, histology: essentially normal
CD2F1 male mice; [6]
  Pathological change grade: Bone Marrow, Atrophy: 2
  Pathological change grade: Bone Marrow, Hemorrhage: 0
  Pathological change grade: Colon, Infiltrate, mixed cells: 0-1
  Pathological change grade: Duodenum: 0
  Pathological change grade: Heart, Infiltrate, mixed cells: 0
  Pathological change grade: Heart, Mineralization: 0
  Pathological change grade: Ileum: 0
  Pathological change grade: Jejunum: 0
  Pathological change grade: Kidney: 0
  Pathological change grade: Liver: 0
  Pathological change grade: Lung, Fibrosis: 0
  Pathological change grade: Lung, Infiltrate, mixed cells: 0
  Pathological change grade: Spleen, Depletion, white pulp: 1-2
  Pathological change grade: Urinary bladder: 0
CD2F1 male mice; 250, 500, 600, 700 mg/kg, 24 h before 9.2 Gy
  protective effects on tissue pathology, especially bone marrow: significant dose-depending protective effects
